Measurements: paper PMC7595621, “Quorum sensing N-Acyl homoserine lactones are a new class of anti-schistosomal” (PLoS Neglected Tropical Diseases, 2020)
Where two headings read alike, the source gives them in different places.

Tests used:
[1] = tested on: S. mansoni schistosomula; experiment: Screening of S. mansoni schistosomula (Roboworm, motility and phenotype); type: cell-based, Schistosoma mansoni; details: for EC50: Schistosoma mansoni; for Selectivity index, schistosomula motility: HepG2 CC50 / schistosomula motility EC50; for Selectivity index, schistosomula phenotype: HepG2 CC50 / schistosomula phenotype EC50
Procedure: Biomphalaria glabrata (NMRI and the previously described pigmented strains) snails infected with S. mansoni (Puerto Rican strain) were shed for 2 hrs under light at 26 °C. Cercariae were collected, mechanically transformed into schistosomula and subsequently prepared for high throughput screening (HTS) on the Roboworm platform as previously described. Schistosomula were cultured in Basch Media (composed of BME media, 10% M169 media, 0.5x MEM vitamins, 10% Schneider’s insect media, 15.6mM Hepes, 5% heat inactivated FBS, 2x Antibiotic/anti-mycotic (Sigma-Aldrich, UK) solution (final concentrations shown)).
EC50 values were calculated from the titrated concentrations by non-linear regression, after log transformation of concentrations and data normalization using GraphPad Prism 7.02.
Fig 2 Anti-schistosomula activity of the eight analogues compared to parent compound 1. […] Test plates were incubated at 37°C for 72 hrs in an atmosphere containing 5% CO2. At 72hrs, schistosomula were scored using the Roboworm platform for both motility (A) and phenotype (B). Any compound that induced a score of below -0.35 for motility (A) and -0.15 for phenotype (B) were considered a hit. Black squares indicate the most positive effect on motility or phenotype; grey scale from dark grey to lighter shades of grey indicates a progressive reduced compound efficacy; white squares indicate no effect on either phenotype or motility. Z´ values for this screen was 0.41741 for motility and 0.57275 for phenotype. (C) Phenotypes of schistosomula when treated with 10μM of each of the test compounds and controls.
Supplementary file pntd.0008630.s003.tif: S1 Fig Initial schistosomula screens of the 14 compounds and their intermediate analogues. […] Test plates were incubated at 37°C for 72 hrs in an atmosphere containing 5% CO2. At 72hrs, schistosomula were scored using the Roboworm platform for both motility and phenotype as previously described. A) Of the 14 compounds evaluated, two fell within the hit region. Z’ scores for motility and phenotype were 0.40079 and 0.56846 respectively. […] Z´ scores for motility and phenotype were 0.37864 and 0.47882 respectively. *Average EC50 value across motility and phenotype is presented for each compound. (TIF) Click here for additional data file.

[2] = tested on: adult S. mansoni worm pairs; experiment: Screening of adult S. mansoni blood flukes (7-week worms), WHO-TDR motility scoring; type: cell-based, Schistosoma mansoni; details: for EC50: 7-week worms, motility, 95% confidence interval; for EC50 / effect on adult worm motility/lethality: 72 hr; for effect on adult worm motility/lethality: highest dose 20 μM
Procedure: (§1) Adult S. mansoni parasites were recovered by hepatic portal vein perfusion from TO outbred mice (HsdOla:TO, Tuck-Ordinary, Envigo, UK) that were percutaneously infected seven weeks earlier with 180 cercariae. Three adult worm pairs per well, in duplicate, were transferred into 48 well plates (Fisher Scientific, Loughborough, UK) and cultured at 37 °C in an atmosphere containing 5% CO2 in DMEM (Gibco, Paisley, UK) containing 10% v/v HEPES, 10% v/v Foetal Bovine Serum (FBS), 0.7% v/v 200 mM L-Glutamine and 1X v/v penicillin-streptomycin. Worms were dosed with test compounds at 20 μM, 10 μM, 5 μM, 2.5 μM, 1.25 μM and 0.625 μM (in 0.2% DMSO) for 72 hr. Adult worms were scored manually at 72 hr using the WHO-TDR metric scoring system as described previously. Dose response curves and EC50 values were obtained by non-linear regression, after log transformation of concentrations and data normalization using GraphPad Prism 7.02. At 72 hr, the medium from each well was also collected, centrifuged at 350 x g for 2 min. Afterwards, the supernatant was removed, and the remaining egg pellet re-suspended in 10% v/v formalin. Eggs that were oval and contained a fully formed lateral spine were subsequently counted.
(§2) Fig 3 Adult schistosome motility and egg production are differentially affected by the nine N-acyl homoserine lactones. […] Parasite motility was evaluated for each sex and scored using the WHO-TDR scoring system (0 = Dead parasite, 4 = Normal/Healthy movement). B) Culture media were collected from some adult co-cultures at 72 hrs and eggs present in the media were counted. p values are indicated as follows: * <0.05, ** <0.01, *** <0.001.
Initially, these screens were conducted at 20 μM; any compounds that scored a 1 or 0 for motility at this primary concentration were further titrated until no further effect was observed. […] Similar to the schistosomula assays, the differences observed in adult parasite motility when treated with the (R)- and (S)- enantiomers of Compound 1 were striking. […] Estimated EC50s for male and female parasites for these two enantiomers were determined (Table 2), with Compound 5 ((R)- enantiomer) having greater activity than Compound 6 ((S)- enantiomer).

[3] = Cell cytotoxicity assay (MTT); type: cell-based, human; details: human, HepG2 cells, MTT, 95% confidence interval, called EC50
Procedure: The cytotoxicity of each compound was assessed on human HepG2 cells as described previously [17]. Briefly, 2 x 10^4 cells/well were seeded in black walled 96-well microtiter plates (Fisher Scientific, Loughborough, UK) and incubated for 24 hr at 37°C in a humidified atmosphere containing 5% CO2. […] Following a further incubation for 24 hr, the MTT assay was performed as previously described [17, 27]. Dose response curves were obtained by non-linear regression, after log transformation of concentrations and data normalization using GraphPad Prism 7.02.

[4] = tested on: adult S. mansoni worm pairs (egg production); experiment: In vitro egg production of adult S. mansoni worm pairs; type: cell-based, Schistosoma mansoni; details: 72 hr, compared to DMSO
Procedure: as §1, §2
As morbidity associated with schistosomiasis is caused by egg-induced granuloma formation in tissues and the subsequent development of fibrotic lesions around these granulomas, compound-mediated modulation of in vitro egg production (as a surrogate for the in vivo pathology initiator) was next assessed (Fig 3B). […] In comparison to the negative control DMSO, in which egg counts ranged from 300–594 (Average—408), all N-Acyl homoserine lactones affected fecundity.

[5] = tested on: S. aureus ATCC 29213; experiment: Broth microdilution MIC and IC50 determination, S. aureus; type: cell-based, Staphylococcus aureus; details: Staphylococcus aureus, ATCC29213, 24 h, 24 hr
Procedure: (§3) S. aureus ATCC 29213 and E. coli ATCC 25922 were cultured in Luria-Bertani (LB) medium at 37°C with aeration at 200 rpm for 24 hr, with all procedures performed in a biosafety level 2 (BSL2) cabinet. Stationary phase cultures were then used for minimum inhibitory concentration (MIC) determination using the broth microdilution method, in fresh LB medium, in a 96-well plate. All compounds were tested in triplicate using an initial bacterial concentration of 5.0 × 10^5 colony forming units (CFU)/mL at a final concentration of 125 mg/L (5% and 2.5% v/v methanol). Compounds with no visible growth at 125 mg/L were further evaluated with progressing dilutions. […] Dilutions were repeated in three independent experiments where the optical density (OD600) was measured in a Hidex plate spectrophotometer and absorbance data used for the calculation of an IC50 value. The IC50 value was obtained from a dose response titration (125–0.09 mg/L). Dose response curves were obtained by non-linear regression, after log transformation of concentrations and data normalization using GraphPad Prism 7.02.
(§4) As Compound 1 was structurally similar to N-acyl homoserine lactones, a compound class involved in bacterial quorum sensing, we decided to assess its antimicrobial activity and determine if enantiomer separation or lactone ring substitution would change this activity.

[6] = tested on: E. coli ATCC 25922; experiment: Broth microdilution MIC and IC50 determination, E. coli; type: cell-based; details: Escherichia coli, ATCC25922, 24 h, 24 hr
Procedure: as §3, §4

[7] = tested on: juvenile S. mansoni worms; experiment: Propidium iodide (PI) staining of juvenile S. mansoni worms; type: cell-based, Schistosoma mansoni; details: 15 μM, 72 hrs
Procedure: Juvenile S. mansoni parasites were recovered via hepatic portal vein perfusion from TO outbred mice (HsdOla:TO, Tuck-Ordinary, Envigo, UK) that were infected percutaneously three weeks earlier with 4000 cercariae. Preparation and centrifugation of juvenile worms have been described previously. […] After motility quantification, 2 μg/mL of PI was added to each well and the plate returned to 37°C, 5% CO2 for 15 minutes. Each well was subsequently imaged on the Roboworm platform using brightfield and fluorescent microscopy (excitation wavelength = 580 nm; emission wavelength = 604 nm). The number of PI positive vs PI negative juvenile worms were cross-checked with the motility scores obtained by our scoring matrix, and the data reported as percentage of PI positive across all parasites within the well. EC50 values were calculated from the motility scores obtained from the dose response titration (as detailed above) and dose response curves were obtained by non-linear regression, after log transformation of concentrations and data normalization using GraphPad Prism 7.02.
Three week juvenile schistosomes, incubated with compounds (1), (3) or controls for 72 hrs, were subsequently cultured with PI at a final concentration of 2 μg/mL for 15 minutes at 37 °C in an environment containing 5% CO2. PI positive parasites (dead) were counted and the percent live vs dead in each well is indicated. A) Quantification of compound (1) mediated juvenile death. B) Quantification of compound (3) mediated juvenile death.

[8] = 72 hrs, 95% confidence interval, read-out: SCHISTOSOMULA EC50 Motility
[9] = 72 hrs, 95% confidence interval, read-out: SCHISTOSOMULA EC50 Phenotype
[10] = Schistosoma mansoni, read-out: ADULT WORM EC50 Female
[11] = Schistosoma mansoni, read-out: ADULT WORM EC50 Male

SMILES	EC50 [1, 8]	EC50 [1, 9]	EC50 [2, 10]	EC50 [2, 11]	effect on adult worm motility/lethality [2]	CC50 at 24 h [3]	also measured
CC(Br)C(=O)NC1CCOC1=O (centres unmarked) [Compound 2, 2-bromo-N-(2-oxotetrahydrofuran-3-yl)propanamide]	> 10 µM	> 10 µM	> 20 µM	> 20 µM	no activity	> 200 µM	–
CC(Br)C(=O)NC1CCSC1=O (centres unmarked) [Compound 4, 2-bromo-N-(2-oxotetrahydrothiophen-3-yl)propanamide]	–	–	18.4 µM	10.5 µM	only demonstrated lethality at the highest concentration	–	Selectivity index, schistosomula motility [1]: 15.4; Selectivity index, schistosomula phenotype [1]: 14.4; EC50 ([2]; read-out: ADULT WORM EC50 Female): > 10 µM; EC50 ([2]; read-out: ADULT WORM EC50 Male): > 10 µM
O=C(CBr)N[C@@H]1CCOC1=O [Compound 5, (R)-2-bromo-N-(2-oxotetrahydrofuran-3-yl)acetamide]	3.1 µM	4 µM	> 10 µM	> 10 µM	complete immobility	50.6 µM	Selectivity index, schistosomula motility [1]: 16.3; Selectivity index, schistosomula phenotype [1]: 12.7; effect on egg production (fecundity) [4]: reduced egg production; MIC ([5]; no visible growth): 125 µg/mL; MIC ([5]; value in square brackets): 563 µM; MIC ([6]; no visible growth): 125 µg/mL; MIC ([6]; value in square brackets): 563 µM
O=C(CBr)N[C@H]1CCOC1=O [Compound 6, (S)-2-bromo-N-(2-oxotetrahydrofuran-3-yl)acetamide]	> 10 µM	> 10 µM	> 20 µM	–	did not have this effect	> 100 µM	anti-schistosomula activity (phenotype and motility) ([1]; titration 10 to 0.625 μM, 72 hrs): no anti-schistosomula activity was observed; Selectivity index, adult worm male ([2]; HepG2 CC50 / adult male EC50): 6.3; effect on egg production (fecundity) [4]: reduced egg production; MIC ([5]; no visible growth): > 125 µg/mL; MIC ([5]; value in square brackets): > 563 µM; MIC ([6]; no visible growth): > 125 µg/mL; MIC ([6]; value in square brackets): > 563 µM
O=C(CCl)NC1CCOC1=O (centres unmarked) [Compound 7, 2-chloro-N-(2-oxotetrahydrofuran-3-yl)acetamide]	–	–	–	–	No lethality/motility defects were observed	–	–
O=C(CCl)NC1CCSC1=O (centres unmarked) [Compound 8, 2-chloro-N-(2-oxotetrahydrothiophen-3-yl)acetamide]	–	–	–	–	No lethality/motility defects were observed	–	–
CC(Cl)C(=O)NC1CCOC1=O (centres unmarked) [Compound 9, 2-chloro-N-(2-oxotetrahydrofuran-3-yl)propanamide]	–	–	–	–	No lethality/motility defects were observed	–	–
O[C@H]([C@H](O)COC(c1ccccc1)(c1ccccc1)c1ccccc1)[C@@H](O)COC(c1ccccc1)(c1ccccc1)c1ccccc1 [Compound E, (2R,3s,4S)-1,5-bis(trityloxy)pentane-2,3,4-triol]	–	–	–	–	–	–	effect on schistosomula motility and phenotype metrics in initial screen ([1]; 10 μM, 72 hrs): negatively affected both schistosomula motility and phenotype metrics; EC50 ([1]; 72 h, read-out: average EC50 for phenotype and motility, schistosomula): 5.6 µM
CC(=O)OC[C@H]1O[C@@H]([S-])[C@H](OC(C)=O)[C@@H](OC(C)=O)[C@@H]1OC(C)=O.CCP(CC)CC.[Au+] [auranofin, reference compound]	–	–	–	–	–	–	Percent P.I positive parasites [7]: 100%
